Paper doi:10.1101/2023.08.28.555062, “Discovery of 2-amide-3-methylester thiophenes that target SARS-CoV-2 Mac1 and repress coronavirus replication, validating Mac1 as an anti-viral target” (bioRxiv, 2023)
“Also recorded” adds a separate entry of the source. Read-outs that look alike come from different tables or passages of the source.

Columns and labels:
SARS-CoV-2 Mac1 [1] = biological target: T1, SARS-CoV-2 Mac1 (Severe acute respiratory syndrome coronavirus 2, UniProt P0DTD1); assay: biochemical; format: binding; conditions: for drop in potency relative to 1: from IC50 values
SARS-CoV-2 Mac1 [2] = biological target: T1, SARS-CoV-2 Mac1; format: binding; conditions: 100 μM concentration; ± standard deviation of three replicates
SARS-CoV-2 = SARS-CoV-2 replication in Calu-3 cells with or without IFNγ, plaque assay; format: cell-based; conditions: 48 hpi
Procedure: Cells were infected with recombinant MHV-JHM or SARS-CoV-2 at a multiplicity of infection (MOI) of 0.1 PFU/cell with a 45–60 min adsorption phase, unless otherwise stated. Progeny cell-associated and cell-free virus was collected at indicated timepoints and viral titers were determined by plaque assay on Hela-MHVR (MHV) or Vero E6 (SARS-CoV-2) cells. All statistical analysis for viral infections was performed using GraphPad Prism software with an ordinary one-way ANOVA with a Dunnet’s test to correct for multiple comparisons to assess differences between treated and untreated samples. Graphs are expressed as means ± standard errors of the means. The n value represents the number of biological replicates for each group. Significant p values were denoted with asterisks. *, p≤0.05; **, p≤0.01, ***, p≤0.001, ****, p≤0.0001.

[3] = biological target: macrodomains from MERS-CoV (Middle East respiratory syndrome-related coronavirus, UniProt K9N7C7); assay: biochemical; format: binding
Sequence of macrodomains from MERS-CoV (K9N7C7 1110-1276 limits assumed): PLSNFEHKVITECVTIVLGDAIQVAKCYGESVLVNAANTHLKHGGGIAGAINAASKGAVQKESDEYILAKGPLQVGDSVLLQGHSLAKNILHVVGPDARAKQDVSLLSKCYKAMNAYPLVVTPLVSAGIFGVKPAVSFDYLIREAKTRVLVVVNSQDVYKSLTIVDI

human macrodomains = assay: FRET profiling against panel of human macrodomains and ARH3; format: binding
L929 cells = assay: MTT cell viability assay, L929 cells; format: cell-based, mouse; conditions: 24 hours
Procedure: (§1) DBT, L929, and Calu-3 cells were treated with 27 for 24 hours. Cellular metabolic activity was assessed using a CyQUANT MTT Cell Proliferation Assay (Thermo Fisher Scientific) following manufacturer’s instructions.

DBT cells = assay: MTT cell viability assay, DBT cells; format: cell-based, mouse; conditions: 24 hours
Procedure: as §1

Calu-3 cells = assay: MTT cell viability assay, Calu-3 cells; format: cell-based, human; conditions: 24 hours
Procedure: as §1

[4] = biological target: macrodomains from SARS-CoV (Severe acute respiratory syndrome coronavirus, UniProt P0C6X7)
ALC1 = biological target: T2, ALC1 (Homo sapiens, UniProt Q86WJ1); assay: FRET profiling / potency against ALC1 with YFP-GAP(PAR); format: binding; conditions: for inhibition at 1000 µM: read-out: maximum inhibition
T2 sequence (Q86WJ1 704-897 limits assumed): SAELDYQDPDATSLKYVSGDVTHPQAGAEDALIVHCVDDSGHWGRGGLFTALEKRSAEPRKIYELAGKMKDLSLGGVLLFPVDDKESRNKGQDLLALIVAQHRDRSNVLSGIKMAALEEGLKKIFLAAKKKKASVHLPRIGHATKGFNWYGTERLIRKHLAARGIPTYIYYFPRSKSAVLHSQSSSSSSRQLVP

viral macrodomains = assay: FRET profiling against panel of other viral macrodomains; format: binding; conditions: up to 100 μM
PARP9 MD1 = PARP9 MD1 (Homo sapiens, UniProt Q8IXQ6); assay: FRET profiling / potency against PARP9 MD1; format: binding
[5] = IC50 (pIC50 ± SEM): IC50, Table 2, synthesized analogs, n=3
[6] = FRET assay, SARS-CoV-2 Mac1, text and Fig. 1C
[7] = Table 2, synthesized analogs, n=3, read-out: IC50 (pIC50 ± SEM): IC50 (converted)
[8] = Table 1, commercial analogs, n=3, given with negative sign, read-out: IC50 (pIC50 ± SEM): pIC50 ± SEM (converted)
[9] = FRET assay, SARS-CoV-2 Mac1, text and Fig. 1C, read-out: IC50
[10] = IC50, FRET assay, SARS-CoV-2 Mac1, text and Fig. 1C

SMILES: COC(=O)c1c(NC(=O)[C@@H]2CCCC[C@H]2C(=O)O)sc2c1CCCCC2 [Compound 26, (1R,2R)-2-{[3-(methoxycarbonyl)-4H,5H,6H,7H,8H-cyclohepta[b]thiophen-2-yl]carbamoyl}cyclohexane-1-carboxylic acid]
- IC50 (SARS-CoV-2 Mac1 [1]; [5]): 2.7 µM
- IC50 (SARS-CoV-2 Mac1 [1]; IC50 (pIC50 ± SEM): pIC50 ± SEM, Table 2, synthesized analogs, n=3, given with negative sign): 2.75 µM

SMILES: COC(=O)c1c(NC(=O)C2CC=CCC2C(=O)OC)sc2c1CCCCC2 (stereo not shown) [Compound 23, Methyl 2-[6-(methoxycarbonyl)cyclohex-3-ene-1-amido]-4H,5H,6H,7H,8H-cyclohepta[b]thiophene-3-carboxylate]
- IC50 (SARS-CoV-2 Mac1 [1]; Table 2, synthesized analogs, n=3, given with negative sign, read-out: IC50 (pIC50 ± SEM): pIC50 ± SEM (converted)): 10.7 µM

SMILES: CC(=O)c1c(NC(=O)C2CC=CCC2C(=O)O)sc2c1CCCCC2 (stereo not shown) [Compound 22, 6-[(3-acetyl-5,6,7,8-tetrahydro-4H-cyclohepta[b]thiophen-2-yl)carbamoyl]cyclohex-3-ene-1-carboxylic acid]
- IC50 (SARS-CoV-2 Mac1 [1]; [6]): inactive
- IC50 (SARS-CoV-2 Mac1 [1]; [7]): > 100 µM

SMILES: COC(=O)c1c(NC(=O)C2CCCCC2C(=O)O)sc2c1CCCC2 (stereo not shown) [Compound 17]
- IC50 (SARS-CoV-2 Mac1 [1]; [8]): 18.6 µM

SMILES: O=C(O)c1c(NC(=O)C2CCCCC2C(=O)O)sc2c1CCCCC2 (stereo not shown) [Compound 24, 2-[(2-carboxycyclohexane-1-carbonyl)amino]-5,6,7,8-tetrahydro-4H-cyclohepta[b]thiophene-3-carboxylic acid]
- IC50 (SARS-CoV-2 Mac1 [1]; [6]): without inhibitory activity
- IC50 (SARS-CoV-2 Mac1 [1]; [7]): > 100 µM

SMILES: COC(=O)c1c(NC(=O)[C@H]2CCCC[C@@H]2C(=O)O)sc2c1CCCCC2 [Compound 25, (1S,2S)-2-{[3-(methoxycarbonyl)-4H,5H,6H,7H,8H-cyclohepta[b]thiophen-2-yl]carbamoyl}cyclohexane-1-carboxylic acid]
- IC50 (SARS-CoV-2 Mac1 [1]; [5]): > 100 µM

SMILES: COC(=O)c1c(NC(=O)C2CCCCC2C(=O)O)sc2c1CCC2 (stereo not shown) [Compound 16]
- IC50 (SARS-CoV-2 Mac1 [1]; [8]): 21.9 µM

SMILES: COC(=O)c1c(NC(=O)[C@@H]2CCCC[C@H]2C(=O)OC)sc2c1CCCCCC2 [Compound 28, Methyl 2-[(1R,2R)-2-(methoxycarbonyl)cyclohexaneamido]-4H,5H,6H,7H,8H,9H-cycloocta[b]thiophene-3-carboxylate]
- IC50 (SARS-CoV-2 Mac1 [1]; [6]): completely inactive
- IC50 (SARS-CoV-2 Mac1 [1]; [7]): > 100 µM

SMILES: COC(=O)c1c(NC(=O)CCC(=O)O)sc2c1CCCCC2 [Compound 2]
- IC50 (SARS-CoV-2 Mac1 [1]; [9]): 48 µM
- drop in potency relative to 1 (SARS-CoV-2 Mac1 [1]): 3.5 fold
- ΔTm (SARS-CoV-2 Mac1 [2]): 0.3 ± 0.12 °C

SMILES: Nc1ncnc2c1ncn2[C@H]1O[C@@H](COP(=O)(O)OP(=O)(O)OC[C@H]2O[C@@H](O)[C@H](O)[C@@H]2O)[C@H](O)[C@@H]1O [ADP-ribose, reference compound]
- ΔTm (SARS-CoV-2 Mac1 [2]): 2.0 ± 0.14 °C

SMILES: COC(=O)c1c(NC(=O)[C@@H]2CCCC[C@H]2C(=O)O)sc2c1CCCCCC2 [Compound 27, (1R,2R)-2-{[3-(methoxycarbonyl)-4H,5H,6H,7H,8H,9H-cycloocta[b]thiophen-2-yl]carbamoyl}cyclohexane-1-carboxylic acid]
- antiviral effect on SARS-CoV-2 (SARS-CoV-2; absence of IFNγ): minimal, if any, antiviral effects
- reduction in virus replication (SARS-CoV-2; presence of IFNγ (100 U/ml), 25 μM): 10–15 fold
- IC50 [3]: > 100 µM
- inhibition % [3]: 43%
- inhibition of human macrodomains (human macrodomains): did not show effective inhibition
- cytotoxicity / viability (MTT) (L929 cells): does not affect the viability; also recorded: did not have any cellular cytotoxicity
- cytotoxicity / viability (MTT) (DBT cells): does not affect the viability; also recorded: did not have any cellular cytotoxicity
- cytotoxicity / viability (MTT) (Calu-3 cells): does not affect the viability; also recorded: did not lead to any cytotoxicity
- inhibition % [4]: 64%
- IC50 (ALC1): 3 µM
- inhibition at 10 µM (ALC1): ≥ 50%
- inhibition at 100 µM (ALC1): ≥ 50%
- inhibition at 1000 µM (ALC1): 63%

SMILES: N#Cc1c(NC(=O)C2CC=CCC2C(=O)O)sc2c1CCCCC2 (stereo not shown) [Compound 21, 6-[(3-cyano-5,6,7,8-tetrahydro-4H-cyclohepta[b]thiophen-2-yl)carbamoyl]cyclohex-3-ene-1-carboxylic acid]
- IC50 (SARS-CoV-2 Mac1 [1]; [6]): inactive
- IC50 (SARS-CoV-2 Mac1 [1]; [7]): > 100 µM

SMILES: COC(=O)c1c(NC(=O)C2CC=CCC2C(=O)O)sc2c1CCCCC2 (stereo not shown) [Compound 1, 6-{[3-(methoxycarbonyl)-5,6,7,8-tetrahydro-4H-cyclohepta[b]thiophen-2-yl]carbamoyl}cyclohex-3-ene-1-carboxylic acid]
- inhibition of human macrodomains (human macrodomains; 10 μM and 100 μM): selective towards Mac1 over all human macrodomains
- inhibition of other tested viral macrodomains (viral macrodomains): did not show effective inhibition
- IC50 (PARP9 MD1): 64 µM
- inhibition at 100 µM (PARP9 MD1; 100 μM): ≥ 70%
- IC50 (SARS-CoV-2 Mac1 [1]; [10]): 14 µM
- inhibition at 100 µM (ALC1): ≥ 50%
- IC50 (ALC1; partial inhibition only, read-out: IC50): 6.8 µM
- inhibition at 1000 µM (ALC1): 58%

SMILES: COC(=O)c1c(NC(=O)C2CCCCC2C(=O)O)sc2c1CCCCC2 (stereo not shown) [Compound 15r, 2-{[3-(methoxycarbonyl)-4H,5H,6H,7H,8H-cyclohepta[b]thiophen-2-yl]carbamoyl}cyclohexane-1-carboxylic acid]
- IC50 (SARS-CoV-2 Mac1 [1]; [5]): 6.3 µM
- IC50 (SARS-CoV-2 Mac1 [1]; [10]): 6.5 µM

SMILES: COC(=O)c1c(NC(=O)c2ccccc2C(=O)O)sc2c1CCCC2 [Compound 3, 2-{[3-(methoxycarbonyl)-4,5,6,7-tetrahydro-1-benzothiophen-2-yl]carbamoyl}benzoic acid]
- IC50 (SARS-CoV-2 Mac1 [1]; [9]): 110 µM
- drop in potency relative to 1 (SARS-CoV-2 Mac1 [1]): 7 fold
- ΔTm (SARS-CoV-2 Mac1 [2]): 0.7 ± 0.24 °C

SMILES: COC(=O)c1c(NC(=O)C2C3CCC(CC3)C2C(=O)O)sc2c1CCCC2 (stereo not shown) [Compound 12]
- IC50 (SARS-CoV-2 Mac1 [1]; [6]): completely abolished the inhibitory effect
- IC50 (SARS-CoV-2 Mac1 [1]; Table 1, commercial analogs, n=3, read-out: IC50 (pIC50 ± SEM): IC50 (converted)): > 100 µM
